Measurements from article PMC12644596 (Scientific Reports, 2025).

Test: MTT test, normal cells, 24 h
Assay type: cell-based
Conditions: human, human dermal adult fibroblasts (HDFa)

Question: For `O=[N+]([O-])c1ccc(NCCCCN=C=S)c2nonc12` [NBDC4NCS, N-(4-isothiocyanatobutyl)-7-nitro-2,1,3-benzoxadiazol-4-amine], which viability at 24 h is on record?
Answer: ~70%
